Consider 39 molecules from ChEMBL document CHEMBL3507680, “University of Dundee, Gates Library screen for HepG2 cell viability”.

The nature of this data set: Human HepG2 cell viability assay in 384 well format. It counts as toxicity, cell-based. Conditions: HepG2 cells, read-out: Inhibition. Also noted: dose 125 nL, time 70.5 hour; concentration not given beside the values.
Consider `CN1CCC(N2CCOC[C@H]2c2nc(-c3ccncc3)c[nH]2)CC1`, for which the cytotoxicity at 70.5 h amounted to 3.14%. As for `CC1CCN(C(=O)CN2CCC(c3n[nH]c(C4CC4)n3)CC2)CC1`, the figure is -1.53%. As for `CCNc1ccnc(NCC2(N(C)C)CCOCC2)n1`, the figure is -5.81%; as for `O=C(Cn1cc(-c2ccccc2)ncc1=O)NC1CCCCC1`, 5.64%; as for `CN(Cc1ccco1)C(=O)Nc1ccc(=O)n(C)c1`, 0.639%. Regarding `CC(CCn1cccn1)NCc1n[nH]c2c1CCCCC2` (centres undefined), the cytotoxicity at 70.5 h was determined as 22.7%. Take `CCCN(CC)C(=O)c1cc(Cn2c(C)nc3ccccc32)[nH]n1`: the cytotoxicity at 70.5 h was -4.58%. The same measure for `CC(=O)NC(Cc1c[nH]c2cc(F)ccc12)C(=O)Nc1cnn(C)c1` (centres undefined): 1.79%; for `Cc1cc(Nc2cnccn2)nc(C2CCCN(CCO)C2)n1` (centres undefined): -10.3%; for `COc1ccsc1C(=O)Nc1cc(Cl)c(=O)n(C)c1`: -5.8%. As for `O=c1n(CC2CCCCO2)nc(CC2CCNCC2)n1-c1ccccc1` (centres undefined), the figure is -6.56%; as for `c1cnc(-c2nc(CNCCn3cccn3)cs2)nc1`, 8.63%. As for `Cc1nc(C)n(CC2CCCN2CCCOc2ccc(C#N)cc2)n1` (centres undefined), the figure is -4.85%; as for `Cc1ccccc1C1CCCN1C(=O)CN1CC2(CCNCC2)OC1=O` (centres undefined), -4.74%. Take `O=C(NC1CC1)c1cc(Cl)ccc1-n1cnnn1`: the cytotoxicity at 70.5 h is -6.19%. The same measure for `NCC1CCCCN1Cc1cc(O)c2cccc(F)c2n1` (centres undefined): 21.6%. As for `CCCn1ncc(C(=O)N(CCOC)Cc2c(C)nn(CC)c2C)c1C`, the figure is -7.73%. Take `CCCn1cc(C(=O)NC(C(=O)O)c2ccccc2C(F)(F)F)c(C)n1` (centres undefined): the cytotoxicity at 70.5 h is -8.7%. In the case of `COCCn1ccc2c(C(=O)NCC3CCCO3)cccc21` (centres undefined), the cytotoxicity at 70.5 h is -8.34%. The same measure for `CN1CCOC(CNC(=O)Cc2coc(-c3ccccc3)n2)C1` (centres undefined): -13.1%; for `O=C1C(Sc2nc(=O)ccn2C2CC2)CCN1c1ccccc1` (centres undefined): 0.555%. For the molecule `Cc1noc(NC(=O)CCNC(=O)c2ccc(Br)cc2)n1`, the cytotoxicity at 70.5 h stood at 14.6%. As for `COc1cc(CNC(=O)Nc2nnc(C(F)(F)F)s2)ccc1O`, the figure is 2.56%; as for `CC(=O)N1CCC2(CCN(C(=O)c3ccc(F)c(C(F)(F)F)c3)C2)C1` (centres undefined), -12.8%. The same measure for `CC(C)c1nccc([C@H]2C[C@@H]3CCN(Cc4ccoc4)C[C@H]3O2)n1`: -4.74%; for `O=C(c1ccc(Cl)cc1)N1CCn2c(nn(-c3cccc(Cl)c3)c2=O)C1`: -6.26%; for `COc1ccc(Cc2ncc3c(n2)CN(C(=O)C(C)(C)C)C3)cc1`: -1.36%. The same measure for `CC(C)Cc1noc(CN2CCN(S(C)(=O)=O)CC2)n1`: -7.6%; for `c1ccc(-c2nc(CN3CCOC(Cn4cncn4)C3)cs2)cc1` (centres undefined): -3.05%.

Consider `O=C1CC(c2ccccc2)C2(CCN(Cc3ccccn3)CC2)N1` (centres undefined), for which the cytotoxicity at 70.5 h is -7.79%. For the molecule `CCCc1cc(=O)[nH]c2nnc(SCC(C)=O)n12`, the cytotoxicity at 70.5 h is -6.78%. As for `CN(C)CCO[C@H]1C[C@@H](O)C12CCN(c1nccc3ccccc13)CC2`, the figure is -10.3%; as for `O=C(Cc1cccs1)N1CCC(O)(CN2CCc3ccccc3C2)C1` (centres undefined), -4.88%; as for `COc1c(CNC2CCN(c3ncccn3)CC2)c(C(C)C)nn1C`, 2.8%. With `Cc1cc2c(cc1C)C(NC1CC1)CCCO2` (centres undefined), the cytotoxicity at 70.5 h amounted to 0.0987%.

With `Cc1ccnc(C(NC(=O)c2sc(C)nc2C)C2CC2)n1` (centres undefined), the cytotoxicity at 70.5 h is -2.09%. On to `CC(C)(C)n1ncc(NCC(O)c2ccccc2)c(Cl)c1=O` (centres undefined), for which the cytotoxicity at 70.5 h was found to be 25.2%. Turning to `CC(C)C(=O)N1CCC2(CN(CC3CCCC3)C2)C1`, the cytotoxicity at 70.5 h is -5.09%. The same measure for `CCOCc1ccc(NCc2cnc(N3CCN(C)CC3)nc2)cc1`: -3.75%.
